The text below walks through data of PMC11938873 (Science Progress, 2025).

The test system of assay [1] is IvAIS1. Kind of assay: GC-MS product assay, t-anol formation. As to conditions: NADPH co-substrate; pH 7.0, 40 °C. Type of assay: biochemical, Illicium verum.
The test system of assay [2] is IvAIS1. Briefly: GC-MS product assay, isoeugenol formation. The format is biochemical, Illicium verum. As to conditions: NADPH co-substrate; pH 7.0, 45 °C.

A word on the Km: it is the substrate concentration at which the rate is half of its maximum. As for `CC(=O)OC/C=C/c1ccc(O)cc1` [coumaryl acetate], the Km in the assay on IvAIS1 [1] stood at 480 ± 86.6 µM.

As for `COc1cc(/C=C/COC(C)=O)ccc1O` [coniferyl acetate], the Km in the assay with IvAIS1 [2] is 438 ± 44.3 µM.
